Test results published in ChEMBL document CHEMBL1201862, “PubChem BioAssay data set” (2004).
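Following 48 hours of exposure in 96-well plates, responses at five concentrations were used to interpolate endpoints linearly. At the GI50, growth is halved.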 Calls of active or inactive are those of the source. Cut-off read from the data, not from the text of the source: active = GI50 up to about 1.1 µM and inactive = higher.

Experiments:
Assay in all cases: DTP human tumour cell line panel, 48 h
[1] = system: HOP-92
[2] = system: Malme-3M
[3] = system: U-251
[4] = system: SF-268
[5] = system: UACC-62
[6] = system: HCT-116
[7] = system: MOLT-4
[8] = system: EKVX
[9] = system: SW-620
[10] = system: MDA-N
[11] = system: UACC-257
[12] = system: OVCAR-8
[13] = system: NCI-H460
[14] = system: TK-10
[15] = system: T47D
[16] = system: RPMI-8226
[17] = system: NCI-H226
[18] = system: SK-OV-3
[19] = system: HCC 2998
[20] = system: A549

## CSC1(SC2=NCCN2)SC2(NCCN2)S1
[1]
  GI50: 13.5 µM (inactive)
[2]
  GI50: 17.6 µM (inactive)
[3]
  GI50: 17.9 µM (inactive)
[4]
  GI50: 18.2 µM (inactive)
[5]
  GI50: 16.9 µM (inactive)
[6]
  GI50: 17 µM (inactive)
[7]
  GI50: 10.8 µM (inactive)
[8]
  GI50: 20.3 µM (inactive)
[9]
  GI50: 9.04 µM (inactive)
[10]
  GI50: 20.5 µM (inactive)
[11]
  GI50: 20.6 µM (inactive)
[12]
  GI50: 19.7 µM (inactive)
[13]
  GI50: 20.5 µM (inactive)
[14]
  GI50: 6.34 µM (inactive)
[15]
  GI50: 0.9 µM (active)
[16]
  GI50: 2.77 µM (inactive)
[17]
  GI50: 27.2 µM (inactive)
[18]
  GI50: 21.6 µM (inactive)
[19]
  GI50: 15.5 µM (inactive)
[20]
  GI50: 20.3 µM (inactive)

## Sc1ncnc2c1ncn2Cc1ccco1
[1]
  GI50: > 100 µM (inactive)
[2]
  GI50: > 100 µM (inactive)
[3]
  GI50: > 100 µM (inactive)
[4]
  GI50: > 100 µM (inactive)
[5]
  GI50: > 100 µM (inactive)
[6]
  GI50: > 100 µM (inactive)
[7]
  GI50: > 100 µM (inactive)
[8]
  GI50: > 100 µM (inactive)
[9]
  GI50: > 100 µM (inactive)
[10]
  GI50: > 100 µM (inactive)
[11]
  GI50: > 100 µM (inactive)
[12]
  GI50: > 100 µM (inactive)
[13]
  GI50: > 100 µM (inactive)
[14]
  GI50: > 100 µM (inactive)
[15]
  GI50: > 100 µM (inactive)
[16]
  GI50: > 100 µM (inactive)
[17]
  GI50: > 100 µM (inactive)
[18]
  GI50: > 100 µM (inactive)
[19]
  GI50: > 100 µM (inactive)
[20]
  GI50: > 100 µM (inactive)

## C/C(=N/NC(=S)Nc1ccc([N+](=O)[O-])cc1)c1cccc(/C(C)=N\NC(=S)Nc2ccc([N+](=O)[O-])cc2)n1
[1]
  GI50: 0.782 µM (active)
[2]
  GI50: 0.515 µM (active)
[3]
  GI50: 0.547 µM (active)
[5]
  GI50: 0.493 µM (active)
[6]
  GI50: 0.291 µM (active)
[7]
  GI50: 0.308 µM (active)
[8]
  GI50: 0.658 µM (active)
[9]
  GI50: 0.364 µM (active)
[10]
  GI50: 2.35 µM (inactive)
[11]
  GI50: 1.09 µM (active)
[12]
  GI50: 0.329 µM (active)
[13]
  GI50: 0.34 µM (active)
[14]
  GI50: 0.577 µM (active)
[15]
  GI50: 2.16 µM (inactive)
[16]
  GI50: 0.491 µM (active)
[17]
  GI50: 0.193 µM (active)
[18]
  GI50: 2.13 µM (inactive)
[19]
  GI50: 1.02 µM (active)
[20]
  GI50: 0.594 µM (active)

## COC(=O)C(=O)Nc1cc2c3c(c1)Oc1cccc4c1C3(C)c1c(cccc1O2)O4
[1]
  GI50: 72.6 µM (inactive)
[2]
  GI50: > 65.9 µM (inactive)
[3]
  GI50: > 100 µM (inactive)
[4]
  GI50: > 100 µM (inactive)
[5]
  GI50: > 100 µM (inactive)
[6]
  GI50: > 75.2 µM (inactive)
[7]
  GI50: 39.2 µM (inactive)
[8]
  GI50: > 82.6 µM (inactive)
[9]
  GI50: > 100 µM (inactive)
[10]
  GI50: > 100 µM (inactive)
[11]
  GI50: > 100 µM (inactive)
[13]
  GI50: > 100 µM (inactive)
[14]
  GI50: 99.5 µM (inactive)
[15]
  GI50: > 61.7 µM (inactive)
[16]
  GI50: > 44.8 µM (inactive)
[17]
  GI50: 4.75 µM (inactive)
[18]
  GI50: > 100 µM (inactive)
[19]
  GI50: > 59.2 µM (inactive)
[20]
  GI50: > 100 µM (inactive)

## CC(C)(C)O/N=C/c1cc(NC(=S)c2ccsc2)ccc1Cl
[1]
  GI50: 19.1 µM (inactive)
[2]
  GI50: 14.3 µM (inactive)
[3]
  GI50: 15.7 µM (inactive)
[4]
  GI50: 16 µM (inactive)
[5]
  GI50: 15.5 µM (inactive)
[6]
  GI50: 11.4 µM (inactive)
[7]
  GI50: 5.71 µM (inactive)
[8]
  GI50: 11.9 µM (inactive)
[9]
  GI50: 17.2 µM (inactive)
[10]
  GI50: 15.2 µM (inactive)
[11]
  GI50: 12.6 µM (inactive)
[12]
  GI50: 13.1 µM (inactive)
[14]
  GI50: 13.7 µM (inactive)
[15]
  GI50: 4.01 µM (inactive)
[16]
  GI50: 2.75 µM (inactive)
[17]
  GI50: 14 µM (inactive)
[18]
  GI50: 18.7 µM (inactive)
[19]
  GI50: 14.5 µM (inactive)
[20]
  GI50: 17.5 µM (inactive)

## CC(NO)/C(=N/O)c1ccco1 (stereo not given)
[1]
  GI50: > 10 µM (inactive)
[2]
  GI50: > 10 µM (inactive)
[3]
  GI50: > 10 µM (inactive)
[4]
  GI50: > 10 µM (inactive)
[6]
  GI50: > 10 µM (inactive)
[7]
  GI50: > 10 µM (inactive)
[8]
  GI50: > 10 µM (inactive)
[9]
  GI50: > 10 µM (inactive)
[10]
  GI50: > 10 µM (inactive)
[11]
  GI50: > 10 µM (inactive)
[12]
  GI50: > 10 µM (inactive)
[13]
  GI50: > 10 µM (inactive)
[14]
  GI50: > 10 µM (inactive)
[15]
  GI50: > 10 µM (inactive)
[16]
  GI50: > 10 µM (inactive)
[17]
  GI50: > 10 µM (inactive)
[19]
  GI50: > 10 µM (inactive)
[20]
  GI50: > 10 µM (inactive)

## COc1ccc(C(SCCO)(c2ccccc2)c2ccc(OC)cc2)cc1
[1]
  GI50: 14.6 µM (inactive)
[2]
  GI50: 16.4 µM (inactive)
[3]
  GI50: 4.46 µM (inactive)
[4]
  GI50: 10.2 µM (inactive)
[5]
  GI50: 11.5 µM (inactive)
[6]
  GI50: 8.41 µM (inactive)
[7]
  GI50: 12.4 µM (inactive)
[8]
  GI50: 13.2 µM (inactive)
[9]
  GI50: 15.3 µM (inactive)
[10]
  GI50: 5.32 µM (inactive)
[11]
  GI50: 14.7 µM (inactive)
[12]
  GI50: 19.2 µM (inactive)
[13]
  GI50: 4.61 µM (inactive)
[14]
  GI50: 18.1 µM (inactive)
[15]
  GI50: 11.9 µM (inactive)
[16]
  GI50: 24.9 µM (inactive)
[17]
  GI50: 13.6 µM (inactive)
[18]
  GI50: 10.8 µM (inactive)
[19]
  GI50: 5.4 µM (inactive)
[20]
  GI50: 11 µM (inactive)
